These results are taken from US20220117845A1, “COMPOSITION AND CONTAINER, KIT, METHOD OF USE” (NTC S.R.L., priority 2019, published 2022).

Data set [1] can be described thus: Dissolution study as a function of the pH value of water. The format is physicochemical. The conditions noted are these: 150 g in 900 ml of water. An excerpt: The solubility of the mannitol powder was then studied in the following three types of non-carbonated commercial waters: • Sangemini: pH at source 6.2; • Antica Fonte Boario: pH at source 7.0; • Panna Toscana: pH at source 8.0.

Data set [2] can be described thus: Bulk density of the powder. The format is physicochemical. Conditions: after passing through drum centrifugal sieve shaker, mesh 3 mm clear span; measured in the laboratory. As to the method:
As regards the bulk density outlined above, in particular the poured bulk density, such parameter is measured according to the European Pharmacopoeia reference standard (Ph. Eur.), current edition 2.2.42, in force at the priority date of this patent application. In the context of the present invention, the expression ‘bulk’ implies that the powder density value is calculated in a manner formally analogous to an absolute density (such as for a solid body or for a liquid). However, since a powder has empty inter-particle spaces, the total volume occupied by the powder (i.e. its outer bulk), thus including the inter-particle spaces between the various particles, should be taken into account when evaluating bulk density. More precisely, according to the aforementioned regulation, a 100 ml class A graduated flask is filled and brought to volume with the powder particles, after which the bulk density is calculated as the ratio between the weight of the powder contained in the flask and the volume (100 ml) occupied by that weight of the powder particles.

For `OC[C@@H](O)[C@@H](O)[C@H](O)[C@H](O)CO` [mannitol], the “time for complete dissolution” value in data set [1] (weakly acidic or neutral pH) is “more than 6 minutes”. Besides, the “time for complete dissolution relative to weakly acidic or neutral pH” value in data set [1] (weakly basic pH) is “substantially half as much”. In addition, the transient density entry in data set [2] is listed as “about 0.73 g/ml”.
